From patent publication US12590067B2, “Herbicidal cyclohexanedione derivatives” (SYNGENTA CROP PROTECTION AG, priority 2019, dated 2026)

Assays:
Assay in all cases: Glasshouse herbicidal test, pre- and post-emergence, percentage damage to the plant
Type in all cases: in vivo
[1] = test system: Alopecurus myosuroides (ALOMY); conditions: 250 g/h, evaluated after 13 days; for ALOMY POST percentage damage caused to the plant (five-point scale): post-emergence; for ALOMY PRE percentage damage caused to the plant (five-point scale): pre-emergence
Method: (§1) Seeds of a variety of test species are sown in standard soil in pots (Lolium perenne (LOLPE), Setaria faberi (SETFA), Alopecurus myosuroides (ALOMY), Echinochloa crus-galli (ECHCG), Avena fatua (AVEFA)). After cultivation for one day (pre-emergence) or after 8 days cultivation (post-emergence) under controlled conditions in a glasshouse (at 24/16° C., day/night; 14 hours light; 65% humidity), the plants are sprayed with an aqueous spray solution derived from the formulation of the technical active ingredient in acetone/water (50:50) solution containing 0.5% Tween 20 (polyoxyethelyene sorbitan monolaurate, CAS RN 9005-64-5). Compounds are applied at 250 g/h. The test plants are then grown in a glasshouse under controlled conditions in a glasshouse (at 24/16° C., day/night; 14 hours light; 65% humidity) and watered twice daily. After 13 days for pre and post-emergence, the test is evaluated for the percentage damage caused to the plant. The biological activities are shown in the following table on a five-point scale (5=80-100%; 4=60-79%; 3=40-59%; 2=20-39%; 1=0-19%).

Avena fatua (AVEFA) = conditions: 250 g/h, evaluated after 13 days; for AVEFA POST percentage damage caused to the plant (five-point scale): post-emergence; for AVEFA PRE percentage damage caused to the plant (five-point scale): pre-emergence
Method: as §1

[2] = test system: Echinochloa crus-galli (ECHCG); conditions: 250 g/h, evaluated after 13 days; for ECHCG POST percentage damage caused to the plant (five-point scale): post-emergence; for ECHCG PRE percentage damage caused to the plant (five-point scale): pre-emergence
Method: as §1

Lolium perenne (LOLPE) = conditions: 250 g/h, evaluated after 13 days; for LOLPE POST percentage damage caused to the plant (five-point scale): post-emergence; for LOLPE PRE percentage damage caused to the plant (five-point scale): pre-emergence
Method: as §1

Setaria faberi (SETFA) = conditions: 250 g/h, evaluated after 13 days; for SETFA POST percentage damage caused to the plant (five-point scale): post-emergence; for SETFA PRE percentage damage caused to the plant (five-point scale): pre-emergence
Method: as §1

CC#Cc1cc(Cl)c(C2C(=O)CC3(CCN(C(=O)C(F)F)CC3)CC2=O)c(Cl)c1 [Compound A16]
5 (5=80-100%): ALOMY POST percentage damage caused to the plant (five-point scale) [1] | ALOMY PRE percentage damage caused to the plant (five-point scale) [1] | AVEFA POST percentage damage caused to the plant (five-point scale) (Avena fatua (AVEFA)) | AVEFA PRE percentage damage caused to the plant (five-point scale) (Avena fatua (AVEFA)) | ECHCG POST percentage damage caused to the plant (five-point scale) [2] | ECHCG PRE percentage damage caused to the plant (five-point scale) [2] | LOLPE POST percentage damage caused to the plant (five-point scale) (Lolium perenne (LOLPE)) | LOLPE PRE percentage damage caused to the plant (five-point scale) (Lolium perenne (LOLPE)) | SETFA POST percentage damage caused to the plant (five-point scale) (Setaria faberi (SETFA)) | SETFA PRE percentage damage caused to the plant (five-point scale) (Setaria faberi (SETFA))

COc1cc(-c2ccc(C#N)cn2)cc(Cl)c1C1C(=O)CC2(CCN(C(=O)C3CC3)CC2)CC1=O [Compound A35]
5 (5=80-100%): ALOMY POST percentage damage caused to the plant (five-point scale) [1] | ALOMY PRE percentage damage caused to the plant (five-point scale) [1] | AVEFA POST percentage damage caused to the plant (five-point scale) (Avena fatua (AVEFA)) | AVEFA PRE percentage damage caused to the plant (five-point scale) (Avena fatua (AVEFA)) | ECHCG POST percentage damage caused to the plant (five-point scale) [2] | ECHCG PRE percentage damage caused to the plant (five-point scale) [2] | LOLPE POST percentage damage caused to the plant (five-point scale) (Lolium perenne (LOLPE)) | LOLPE PRE percentage damage caused to the plant (five-point scale) (Lolium perenne (LOLPE)) | SETFA POST percentage damage caused to the plant (five-point scale) (Setaria faberi (SETFA)) | SETFA PRE percentage damage caused to the plant (five-point scale) (Setaria faberi (SETFA))

CC#Cc1cc(Cl)c(C2C(=O)CC3(CCN(C(=O)C4CC4)CC3)CC2=O)c(OC)c1 [Compound A8]
5 (5=80-100%): ALOMY POST percentage damage caused to the plant (five-point scale) [1] | ALOMY PRE percentage damage caused to the plant (five-point scale) [1] | AVEFA POST percentage damage caused to the plant (five-point scale) (Avena fatua (AVEFA)) | AVEFA PRE percentage damage caused to the plant (five-point scale) (Avena fatua (AVEFA)) | ECHCG POST percentage damage caused to the plant (five-point scale) [2] | ECHCG PRE percentage damage caused to the plant (five-point scale) [2] | LOLPE POST percentage damage caused to the plant (five-point scale) (Lolium perenne (LOLPE)) | LOLPE PRE percentage damage caused to the plant (five-point scale) (Lolium perenne (LOLPE)) | SETFA POST percentage damage caused to the plant (five-point scale) (Setaria faberi (SETFA)) | SETFA PRE percentage damage caused to the plant (five-point scale) (Setaria faberi (SETFA))

CC#Cc1cc(Cl)c(C2C(=O)CC3(CCN(C(=O)CC#N)CC3)CC2=O)c(OC)c1 [Compound A12]
5 (5=80-100%): ALOMY POST percentage damage caused to the plant (five-point scale) [1] | ALOMY PRE percentage damage caused to the plant (five-point scale) [1] | AVEFA POST percentage damage caused to the plant (five-point scale) (Avena fatua (AVEFA)) | AVEFA PRE percentage damage caused to the plant (five-point scale) (Avena fatua (AVEFA)) | ECHCG POST percentage damage caused to the plant (five-point scale) [2] | ECHCG PRE percentage damage caused to the plant (five-point scale) [2] | LOLPE POST percentage damage caused to the plant (five-point scale) (Lolium perenne (LOLPE)) | LOLPE PRE percentage damage caused to the plant (five-point scale) (Lolium perenne (LOLPE)) | SETFA POST percentage damage caused to the plant (five-point scale) (Setaria faberi (SETFA)) | SETFA PRE percentage damage caused to the plant (five-point scale) (Setaria faberi (SETFA))

CC#Cc1cc(Cl)c(C2C(=O)CC3(CCN(C(=O)COC)CC3)CC2=O)c(OC)c1 [Compound A5]
5 (5=80-100%): ALOMY POST percentage damage caused to the plant (five-point scale) [1] | ALOMY PRE percentage damage caused to the plant (five-point scale) [1] | AVEFA POST percentage damage caused to the plant (five-point scale) (Avena fatua (AVEFA)) | AVEFA PRE percentage damage caused to the plant (five-point scale) (Avena fatua (AVEFA)) | ECHCG POST percentage damage caused to the plant (five-point scale) [2] | ECHCG PRE percentage damage caused to the plant (five-point scale) [2] | LOLPE POST percentage damage caused to the plant (five-point scale) (Lolium perenne (LOLPE)) | LOLPE PRE percentage damage caused to the plant (five-point scale) (Lolium perenne (LOLPE)) | SETFA POST percentage damage caused to the plant (five-point scale) (Setaria faberi (SETFA)) | SETFA PRE percentage damage caused to the plant (five-point scale) (Setaria faberi (SETFA))
